Assay results: PubChem BioAssay (NCI)
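Results reflect a 48-hour exposure of cells in 96-well plates to compound at five concentrations. Definition used: TGI = concentration required for complete inhibition of growth.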

Legend:
Test in all cases: NCI anticancer screen, dose series, 48 h
A498 renal = system: A498 renal
SNB-75 CNS = system: SNB-75 CNS
NCI/ADR-RES ovarian = system: NCI/ADR-RES ovarian
ACHN renal = system: ACHN renal
HS 578T breast = system: HS 578T breast
PC-3 prostate = system: PC-3 prostate
HT29 colon = system: HT29 colon
CCRF-CEM leukemia = system: CCRF-CEM leukemia
HOP-92 NSCLC = system: HOP-92 NSCLC
MDA-N = system: MDA-N

Compound | TGI (A498 renal) | TGI (SNB-75 CNS) | TGI (NCI/ADR-RES ovarian) | TGI (ACHN renal) | TGI (HS 578T breast) | TGI (PC-3 prostate) | TGI (HT29 colon) | TGI (CCRF-CEM leukemia) | TGI (HOP-92 NSCLC) | TGI (MDA-N)
COc1ccc2c3c([nH]c2c1)[C@H](C=C(C)C)N1C(=O)[C@@H]2CCCN2C(=O)[C@@H]1C3 | > 100 µM | 61 µM | > 100 µM | > 100 µM | > 100 µM | > 100 µM | > 100 µM | > 100 µM | > 100 µM | 
Nc1ccc(Cc2ccc(N)c(C(=O)O)c2)cc1C(=O)O | > 100 µM | > 100 µM | > 100 µM | > 100 µM | > 100 µM | > 100 µM | > 100 µM | > 100 µM | > 100 µM | > 100 µM
COc1cc2cc[n+](C)c(Cc3ccc(Oc4cc(Cc5c6cc(OC)c(OC)cc6cc[n+]5C)ccc4OC)cc3)c2cc1OC | > 100 µM | > 100 µM |  | > 100 µM | > 100 µM | > 100 µM | > 100 µM | > 100 µM | > 100 µM | > 100 µM
CCCCSCCC(N)P(=O)(O)O (stereo not drawn) |  | > 100 µM | > 100 µM | > 100 µM | > 100 µM | > 100 µM | > 100 µM | > 100 µM | > 100 µM | > 100 µM
O=S(C(c1ccccc1)=P(c1ccccc1)(c1ccccc1)c1ccccc1)c1ccc(Cl)cc1 (stereo not drawn) | 37.1 µM | > 100 µM | > 100 µM | 60 µM | 55.3 µM | 68.4 µM | > 100 µM | > 100 µM | 42.2 µM | 78.6 µM
Cc1ccc(S(=O)(=O)Nc2cc(=O)[nH]c3c2CCC3)cc1 | > 100 µM | > 100 µM | > 100 µM | > 100 µM | > 100 µM | > 100 µM | > 100 µM | > 100 µM | > 100 µM | > 100 µM
C[C@]12O[C@@]3(C)O[C@@]3(C)[C@]3(C)O[C@]3(C)[C@@]1(C)O2 | > 100 µM | 74.6 µM | > 100 µM | > 100 µM | > 100 µM | > 100 µM | > 100 µM |  | > 100 µM | > 100 µM
O=C(NN1CCCCC1)c1cc2cc(CCl)ccc2oc1=O | > 100 µM | 34.9 µM | 54.2 µM | > 100 µM | 36.4 µM | 30.4 µM | 33 µM | 67.5 µM | 22.9 µM | 33.4 µM
CCCC(=O)Nc1cc(/C=C/C(=O)N2CC(CCl)c3c2cc(OC(C)=O)c2[nH]cc(C)c32)n(C)c1 (stereo not drawn) | 0.000667 µM | < 2.5e-05 µM | 0.0121 µM |  | 0.00193 µM |  | > 0.25 µM | 0.000161 µM | 0.000146 µM | 
